Several values for one entry are separate records, joined by “and”; a condition that tells them apart may be missing. Equal entries are not always repeated. Inconclusive results and toxic doses are left out.
Tested on: L1210 leukemia ip in BDF1 mice, survival T/C
Assay: NCI In Vivo Anticancer Drug Screen. Data for tumor model L1210 Leukemia (intraperitoneal) in B6D2F1 (BDF1) mice
Conditions: endpoint: mean survival time, higher = longer survival
Method in brief: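 Each compound was tested against a transplantable tumor grown in mice. The endpoint was survival, with treated animals benchmarked against vehicle controls as a simple ratio.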

[1] = dose: 100.0 mg/kg/injection, schedule: Q01DX001 (ip), vehicle: saline
[2] = dose: 200.0 mg/kg/injection, schedule: Q01DX001 (ip), vehicle: saline
[3] = dose: 400.0 mg/kg/injection, schedule: Q01DX001 (ip), vehicle: saline
[4] = dose: 100.0 mg/kg/injection, schedule: Q01DX001 (ip), vehicle: carboxymethylcellulose (CMC)
[5] = dose: 200.0 mg/kg/injection, schedule: Q01DX001 (ip), vehicle: carboxymethylcellulose (CMC)
[6] = dose: 400.0 mg/kg/injection, schedule: Q01DX001 (ip), vehicle: carboxymethylcellulose (CMC)
[7] = dose: 50.0 mg/kg/injection, schedule: Q01DX009 (ip), vehicle: saline
[8] = dose: 100.0 mg/kg/injection, schedule: Q01DX009 (ip), vehicle: saline
[9] = dose: 100.0 mg/kg/injection, schedule: Q01DX009 (ip), vehicle: Klucel (hydroxypropylcellulose) (HPC)
[10] = dose: 200.0 mg/kg/injection, schedule: Q01DX009 (ip), vehicle: Klucel (hydroxypropylcellulose) (HPC)
[11] = dose: 100.0 mg/kg/injection, schedule: Q01DX009 (ip), vehicle: saline with Tween-80
[12] = dose: 200.0 mg/kg/injection, schedule: Q01DX009 (ip), vehicle: saline with Tween-80
[13] = dose: 400.0 mg/kg/injection, schedule: Q01DX009 (ip), vehicle: saline with Tween-80
[14] = dose: 100.0 mg/kg/injection, schedule: Q04DX003 (ip), vehicle: saline with Tween-80
[15] = dose: 200.0 mg/kg/injection, schedule: Q04DX003 (ip), vehicle: saline with Tween-80
[16] = dose: 400.0 mg/kg/injection, schedule: Q04DX003 (ip), vehicle: saline with Tween-80

Structure (SMILES): O=C1C=C/C(=N/S(=O)(=O)c2ccccc2)c2ccccc21
- T/C (dose: 6.0 mg/kg/injection, schedule: Q01DX009 (ip), vehicle: DMSO): 106 % of control
- T/C (dose: 12.0 mg/kg/injection, schedule: Q01DX009 (ip), vehicle: DMSO): 88 % of control
- T/C (dose: 25.0 mg/kg/injection, schedule: Q01DX009 (ip), vehicle: DMSO): 86 % of control
- T/C (dose: 25.0 mg/kg/injection, schedule: Q04DX003 (ip), vehicle: DMSO): 94 % of control
- T/C (dose: 50.0 mg/kg/injection, schedule: Q04DX003 (ip), vehicle: DMSO): 89 % of control
- T/C (dose: 100.0 mg/kg/injection, schedule: Q04DX003 (ip), vehicle: DMSO): 106 % of control and 88 % of control

Structure (SMILES): COc1ccc(/C=C2/CSC/C(=C/c3ccc(OC)c(OC)c3)C2=O)cc1OC
- T/C (dose: 100.0 mg/kg/injection, schedule: Q04DX003 (ip), vehicle: saline): 103 % of control
- T/C (dose: 200.0 mg/kg/injection, schedule: Q01DX009 (ip), vehicle: saline): 86 % of control
- T/C (dose: 200.0 mg/kg/injection, schedule: Q04DX003 (ip), vehicle: saline): 94 % of control
- T/C (dose: 400.0 mg/kg/injection, schedule: Q04DX003 (ip), vehicle: saline): 94 % of control

Structure (SMILES): CCCCC(=O)N/N=C/c1ccc([N+](=O)[O-])cc1
- T/C [1]: 95 % of control
- T/C [2]: 89 % of control
- T/C [3]: 94 % of control

Structure (SMILES): Cc1cc(Cl)c(OCC(=O)O)c(Cl)c1
- T/C [1]: 92 % of control
- T/C [2]: 92 % of control
- T/C [3]: 94 % of control

Structure (SMILES): NNC(=O)CNc1ccccc1Br
- T/C (dose: 50.0 mg/kg/injection, schedule: Q04DX002 (ip), vehicle: Klucel (hydroxypropylcellulose) (HPC)): 106 % of control
- T/C (dose: 100.0 mg/kg/injection, schedule: Q04DX002 (ip), vehicle: Klucel (hydroxypropylcellulose) (HPC)): 105 % of control and 110 % of control

Structure (SMILES): Nc1[nH]c(=O)nc2nc(I)[nH]c12
- T/C [4]: 97 % of control
- T/C [5]: 100 % of control
- T/C [6]: 113 % of control

Structure (SMILES): COC(=O)C1=C(O)CN(C)C1=O
- T/C (dose: 12.5 mg/kg/injection, schedule: Q01DX001 (ip), vehicle: saline): 98 % of control
- T/C (dose: 25.0 mg/kg/injection, schedule: Q01DX001 (ip), vehicle: saline): 93 % of control
- T/C (dose: 25.0 mg/kg/injection, schedule: Q01DX009 (ip), vehicle: saline): 101 % of control
- T/C (dose: 50.0 mg/kg/injection, schedule: Q01DX001 (ip), vehicle: saline): 91 % of control
- T/C [7]: 103 % of control
- T/C [1]: 86 % of control
- T/C [8]: 96 % of control
- T/C (dose: 150.0 mg/kg/injection, schedule: Q01DX009 (ip), vehicle: saline): 94 % of control

Structure (SMILES): CN(N=O)C(=O)NCCNc1ncnc2nc[nH]c12
- T/C (dose: 43.0 mg/kg/injection, schedule: Q01DX Z (ip), vehicle: carboxymethylcellulose (CMC)): 86 % of control
- T/C (dose: 87.0 mg/kg/injection, schedule: Q01DX Z (ip), vehicle: carboxymethylcellulose (CMC)): 93 % of control
- T/C (dose: 175.0 mg/kg/injection, schedule: Q01DX Z (ip), vehicle: carboxymethylcellulose (CMC)): 94 % of control
- T/C (dose: 350.0 mg/kg/injection, schedule: Q01DX Z (ip), vehicle: carboxymethylcellulose (CMC)): 114 % of control

Structure (SMILES): C/C=C\C=N\NC(N)=S
- T/C (dose: 12.5 mg/kg/injection, schedule: Q04DX003 (ip), vehicle: saline with Tween-80): 95 % of control
- T/C (dose: 25.0 mg/kg/injection, schedule: Q04DX003 (ip), vehicle: saline with Tween-80): 103 % of control
- T/C (dose: 50.0 mg/kg/injection, schedule: Q04DX003 (ip), vehicle: saline with Tween-80): 95 % of control

Structure (SMILES): c1ccc(COc2ccnc(SCc3ccccc3)n2)cc1
- T/C (dose: 100.0 mg/kg/injection, schedule: Q01DX001 (ip), vehicle: Klucel (hydroxypropylcellulose) (HPC)): 90 % of control
- T/C [9]: 95 % of control
- T/C (dose: 200.0 mg/kg/injection, schedule: Q01DX001 (ip), vehicle: Klucel (hydroxypropylcellulose) (HPC)): 95 % of control
- T/C [10]: 93 % of control
- T/C (dose: 400.0 mg/kg/injection, schedule: Q01DX001 (ip), vehicle: Klucel (hydroxypropylcellulose) (HPC)): 100 % of control

Structure (SMILES): CN(C)c1ccc(/C=C2/CCCC/C2=N/O)cc1
- T/C [11]: 98 % of control
- T/C [12]: 92 % of control
- T/C [13]: 88 % of control

Structure (SMILES): C=CC1CN(CCc2cc3ccccc3[nH]2)CCC1CC(=O)OCC (stereo unspecified)
- T/C [11]: 91 % of control
- T/C [12]: 96 % of control
- T/C [13]: 97 % of control

Structure (SMILES): CCOC(=O)c1ccc(N2C(=O)C=CC2=O)cc1
- T/C [14]: 96 % of control
- T/C [15]: 98 % of control
- T/C [16]: 89 % of control

Structure (SMILES): Oc1ccc(C(c2ccc(O)c(Br)c2)c2ccccn2)cc1Br
- T/C (dose: 100.0 mg/kg/injection, schedule: Q04DX003 (ip), vehicle: Klucel (hydroxypropylcellulose) (HPC)): 100 % of control
- T/C (dose: 200.0 mg/kg/injection, schedule: Q04DX003 (ip), vehicle: Klucel (hydroxypropylcellulose) (HPC)): 98 % of control
- T/C (dose: 400.0 mg/kg/injection, schedule: Q04DX003 (ip), vehicle: Klucel (hydroxypropylcellulose) (HPC)): 96 % of control

Structure (SMILES): O=C(Nc1ccc(CCO)cc1)Nc1cc(C(F)(F)F)ccc1Cl
- T/C [9]: 100 % of control
- T/C [10]: 95 % of control

Structure (SMILES): O=S1(=O)CCCC1=C(c1ccccc1)c1ccccc1
- T/C [11]: 105 % of control
- T/C [12]: 100 % of control
- T/C [13]: 107 % of control

Structure (SMILES): Nc1ccccc1N/N=C/c1ccccc1
- T/C [1]: 101 % of control
- T/C [2]: 101 % of control
- T/C [3]: 94 % of control

Structure (SMILES): O=C(CCN1CCCCC1)c1ccccc1
- T/C (dose: 5.0 mg/kg/injection, schedule: Q04DX003 (ip), vehicle: saline): 96 % of control
- T/C (dose: 10.0 mg/kg/injection, schedule: Q04DX003 (ip), vehicle: saline): 103 % of control
- T/C (dose: 20.0 mg/kg/injection, schedule: Q04DX003 (ip), vehicle: saline): 94 % of control

Structure (SMILES): CC1(C)NC(=O)N(C(C)(C)C(=O)O)C1=O
- T/C [4]: 90 % of control
- T/C [5]: 95 % of control
- T/C [6]: 87 % of control

Structure (SMILES): COc1ccc(/C=C/c2cnccn2)cc1OC
- T/C [9]: 101 % of control
- T/C [10]: 101 % of control
- T/C (dose: 400.0 mg/kg/injection, schedule: Q01DX009 (ip), vehicle: Klucel (hydroxypropylcellulose) (HPC)): 106 % of control

Structure (SMILES): Nc1nccnc1C(=O)O
- T/C (dose: 25.0 mg/kg/injection, schedule: Q01DX009 (ip), vehicle: water): 100 % of control
- T/C (dose: 50.0 mg/kg/injection, schedule: Q01DX009 (ip), vehicle: water): 96 % of control
- T/C (dose: 100.0 mg/kg/injection, schedule: Q01DX009 (ip), vehicle: water): 100 % of control
- T/C (dose: 200.0 mg/kg/injection, schedule: Q01DX009 (ip), vehicle: water): 96 % of control

Structure (SMILES): C(CC1CC1)OCOCCC1CC1
- T/C (dose: 100.0 mg/kg/injection, schedule: Q01DX001 (ip), vehicle: saline with Tween-80): 93 % of control
- T/C (dose: 200.0 mg/kg/injection, schedule: Q01DX001 (ip), vehicle: saline with Tween-80): 97 % of control

Structure (SMILES): CCCCCCCC/C=C\CCCCCCCCNC(C)=O
- T/C [14]: 101 % of control
- T/C [15]: 103 % of control
- T/C [16]: 98 % of control

Structure (SMILES): CCn1c2ccccc2c2c(C)c3cnccc3c(C)c21
- T/C (dose: 37.5 mg/kg/injection, schedule: Q04DX003 (ip), vehicle: saline): 94 % of control
- T/C (dose: 62.5 mg/kg/injection, schedule: Q01DX009 (ip), vehicle: saline with Tween-80): 193 % of control
- T/C (dose: 75.0 mg/kg/injection, schedule: Q04DX003 (ip), vehicle: saline): 90 % of control
- T/C (dose: 125.0 mg/kg/injection, schedule: Q01DX009 (ip), vehicle: saline with Tween-80): 101 % of control
- T/C (dose: 150.0 mg/kg/injection, schedule: Q04DX003 (ip), vehicle: saline): 92 % of control
- T/C (dose: 250.0 mg/kg/injection, schedule: Q01DX009 (ip), vehicle: saline with Tween-80): 105 % of control
- T/C (dose: 300.0 mg/kg/injection, schedule: Q04DX003 (ip), vehicle: saline): 94 % of control

Structure (SMILES): Cc1cc(=O)[nH]c2ccc(Cc3ccc(Cl)cc3)cc12
- T/C [1]: 97 % of control
- T/C [2]: 98 % of control
- T/C [3]: 95 % of control

Structure (SMILES): CC(C)(C)OC(=O)N1C2CCC(C2)N1C(=O)OC(C)(C)C
- T/C [4]: 100 % of control
- T/C [5]: 96 % of control
- T/C [6]: 96 % of control

Structure (SMILES): CNC(Cl)(Cl)NC
- T/C [7]: 90 % of control
- T/C [8]: 87 % of control
- T/C (dose: 100.0 mg/kg/injection, schedule: Q04DX002 (ip), vehicle: saline): 86 % of control
- T/C (dose: 200.0 mg/kg/injection, schedule: Q04DX002 (ip), vehicle: saline): 88 % of control
